Test results from ChEMBL document CHEMBL1146039, “Synthesis and antitumor activity of two natural N-acetylglucosamine-bearing triterpenoid saponins: lotoidoside D and E” (Bioorg Med Chem Lett, 2006).

What was measured:
HeLa [1] = assay: Antitumor activity against HeLa cell line by MTT assay; type: functional, cell-based; settings: Homo sapiens
HeLa [2] = assay: Antitumor activity against HeLa cell line at 10 uM by MTT assay; type: functional; settings: Homo sapiens
HeLa [3] = assay: Antitumor activity against HeLa cell line at 1 uM by MTT assay; type: functional; settings: Homo sapiens
HeLa [4] = assay: Antitumor activity against HeLa cell line at 100 nM by MTT assay; type: functional; settings: Homo sapiens
HeLa [5] = assay: Antitumor activity against HeLa cell line at 10 nM by MTT assay; type: functional; settings: Homo sapiens
WEHI-164 = assay: Antitumor activity against WEHI 164 cell; type: functional, cell-based; settings: Mus musculus

Row | IC50 (HeLa [1]) [nM] | IC50 (WEHI-164) [nM] | Structure (SMILES) | inhibition at 10 µM (HeLa [2]) [%] | inhibition at 1 µM (HeLa [3]) [%] | inhibition at 0.1 µM (HeLa [4]) [%] | inhibition at 0.01 µM (HeLa [5]) [%]
1 | 2740 | 360 | CC(=O)N[C@H]1[C@H](O[C@H]2CC[C@]3(C)[C@H]4CC=C5[C@@H]6CC(C)(C)CC[C@]6(C(=O)O)CC[C@@]5(C)[C@]4(C)CC[C@H]3C2(C)C)O[C@H](CO)[C@H](O[C@@H]2O[C@H](CO)[C@@H](O)[C@H](O)[C@H]2O)[C@@H]1O[C@@H]1O[C@H](CO)[C@H](O)[C@H](O)[C@H]1O [LOTOIDOSIDE D] | 56.4 | 35.3 | 32.8 | 34.4
2 | > 10000 | 30 | CC(=O)N[C@H]1[C@H](O[C@H]2CC[C@]3(C)[C@H]4CC=C5[C@@H]6CC(C)(C)CC[C@]6(C(=O)O)CC[C@@]5(C)[C@]4(C)CC[C@H]3C2(C)C)O[C@H](CO)[C@@H](O)[C@@H]1O[C@@H]1O[C@H](CO)[C@H](O)[C@H](O)[C@H]1O [LOTOIDOSIDE E] | 42 | 10 | 1.71 | 0.79
